Each structure is given as a SMILES string.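 Values below derive from 48-hour exposures of cells grown in 96-well plates, with endpoints linearly interpolated between the two concentrations bracketing the appropriate inhibition level. Here, GI50 denotes the concentration required for 50% inhibition of growth. At the TGI there is no net growth.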

Test systems include SF-539 CNS; MOLT-4 leukemia; OVCAR-3 ovarian; CCRF-CEM leukemia; 786-0 renal; NCI-H226 lung; HOP-62 NSCLC; HL-60(TB) leukemia; ACHN renal; HOP-92 NSCLC.
What all share (experiment): DTP human tumour cell line panel, 48 h

Consider `O=C(CCl)N1c2ccccc2Sc2ccc3ccccc3c21`, for which the GI50 (as a rule, the concentration that inhibits growth by half) with SF-539 CNS is 1.72 µM; in the test with MOLT-4 leukemia it was 0.478 µM; in the test on OVCAR-3 ovarian it was 1.36 µM; in the test on CCRF-CEM leukemia it was 0.22 µM; with 786-0 renal, 1.44 µM; in the test on NCI-H226 lung it was 2.36 µM. The GI50 was 1.63 µM with HOP-62 NSCLC, 1.07 µM in the test on HL-60(TB) leukemia, 0.801 µM with ACHN renal and 1.16 µM in the test with HOP-92 NSCLC. Further, the TGI (usually the concentration giving total growth inhibition) in the test on SF-539 CNS was 3.15 µM; with OVCAR-3 ovarian, 2.72 µM; in the test on CCRF-CEM leukemia it was 0.533 µM; in the test with 786-0 renal it was 3.03 µM; in the test with NCI-H226 lung it was 5.5 µM; in the test with HOP-62 NSCLC it was 3.05 µM. For the same compound, the TGI in the test with HL-60(TB) leukemia was 5.13 µM; with ACHN renal, 2.01 µM; in the test on HOP-92 NSCLC it was 2.51 µM.
With `C=C(c1ccc(C(=O)N(C)c2ccccc2N)cc1)C(C)N1C(=O)[C@H]2CCCN2C(=O)c2ccccc21` (stereo partly drawn), the GI50 with SF-539 CNS is 42.3 µM; in the test with MOLT-4 leukemia it was 24.8 µM; in the test with OVCAR-3 ovarian, 82 µM; in the test with CCRF-CEM leukemia, 27.4 µM; in the test with 786-0 renal, 57.6 µM; with NCI-H226 lung it was 63.4 µM. The GI50 with HOP-62 NSCLC is 31.6 µM; with HL-60(TB) leukemia it was 20.2 µM; with ACHN renal, 36.5 µM; in the test on HOP-92 NSCLC, 37.2 µM. For the same compound, the TGI in the test on SF-539 CNS is more than 100 µM; in the test with MOLT-4 leukemia, 97.9 µM; in the test on OVCAR-3 ovarian, more than 100 µM; in the test on CCRF-CEM leukemia, more than 100 µM; in the test with 786-0 renal, more than 100 µM; in the test on NCI-H226 lung, more than 100 µM. Moreover, the TGI was more than 100 µM with HOP-62 NSCLC, 80.2 µM in the test with HL-60(TB) leukemia, more than 100 µM with ACHN renal and more than 100 µM in the test on HOP-92 NSCLC.
With `C/C(=N\N=C(/[Se])N1CC2CCC(CC2)C1)c1ccccn1`, the TGI is 1.2 µM with SF-539 CNS; 1.16 µM in the test with MOLT-4 leukemia; 1.61 µM in the test with OVCAR-3 ovarian; 0.808 µM with CCRF-CEM leukemia; 2.52 µM with 786-0 renal; 1.88 µM in the test with NCI-H226 lung. In addition, the TGI with HOP-62 NSCLC was 1.92 µM; in the test with HL-60(TB) leukemia, 0.489 µM; in the test on ACHN renal, 1.78 µM; in the test with HOP-92 NSCLC it was 1.18 µM.
Consider `CN1CC(C(=O)C2C(=O)c3ccccc3C2=O)C(=O)C(=O)C(C(=O)C2C(=O)c3ccccc3C2=O)C1` (stereo not drawn), for which the TGI with SF-539 CNS was more than 100 µM; with MOLT-4 leukemia, more than 100 µM; in the test on OVCAR-3 ovarian, more than 10 µM; with CCRF-CEM leukemia, more than 100 µM; with 786-0 renal it was more than 100 µM; in the test on HOP-62 NSCLC, more than 10 µM. Further, the TGI with HL-60(TB) leukemia, in the test on ACHN renal and with HOP-92 NSCLC was more than 100 µM each time.
For the compound `O=C(O)c1ccc(N/C=C2\C(=O)c3ccccc3OC2O)cc1O` (stereo not drawn), the GI50 with SF-539 CNS is 16.5 µg/mL; with MOLT-4 leukemia, 13.2 µg/mL; in the test with OVCAR-3 ovarian, 8.41 µg/mL; in the test with CCRF-CEM leukemia it was 13.8 µg/mL; in the test on 786-0 renal it was 28.5 µg/mL; in the test with NCI-H226 lung it was 46.5 µg/mL. Also, the GI50 with HOP-62 NSCLC was 24.8 µg/mL; in the test with HL-60(TB) leukemia, 9.35 µg/mL; in the test on ACHN renal, 29 µg/mL; in the test with HOP-92 NSCLC, 4.11 µg/mL. The TGI is 39.1 µg/mL with SF-539 CNS; 77.9 µg/mL in the test on MOLT-4 leukemia; 41.9 µg/mL in the test on OVCAR-3 ovarian; 59.6 µg/mL with CCRF-CEM leukemia; 52.3 µg/mL in the test with 786-0 renal; more than 150 µg/mL in the test on NCI-H226 lung. Moreover, the TGI is 63.7 µg/mL with HOP-62 NSCLC, more than 150 µg/mL in the test on HL-60(TB) leukemia, 84.6 µg/mL in the test on ACHN renal and 36.5 µg/mL with HOP-92 NSCLC.
Regarding `COc1cccc2c1C(=O)c1c(O)c3c(c(O)c1C2=O)C[C@@](O)(C(=O)CO)C[C@@H]3OC1C[C@H](N)[C@H](O)[C@H](C)O1` (stereo partly drawn), the GI50 is 0.0387 µM with SF-539 CNS; 0.167 µM with OVCAR-3 ovarian; 0.0186 µM with CCRF-CEM leukemia; 0.0324 µM with 786-0 renal; 0.0201 µM in the test with NCI-H226 lung; 0.033 µM in the test with HOP-62 NSCLC. For the same compound, the GI50 with HL-60(TB) leukemia is 0.078 µM; in the test on ACHN renal, 0.0257 µM; in the test on HOP-92 NSCLC, 0.0236 µM. For the same compound, the TGI came out at 0.528 µM in the test on SF-539 CNS; 0.105 µM with MOLT-4 leukemia; 0.428 µM in the test with CCRF-CEM leukemia; 1.19 µM in the test on 786-0 renal; 0.102 µM in the test on NCI-H226 lung; 0.323 µM with HOP-62 NSCLC. The TGI was determined as 0.593 µM in the test with HL-60(TB) leukemia, 0.242 µM with ACHN renal and 0.233 µM with HOP-92 NSCLC.
For `COC(=O)[C@]12CC[C@@H](C)[C@H](C)[C@@H]1C1=CC[C@@H]3[C@@]4(C)C=C(O)C(=O)[C@@]5(C)COC(=C54)C[C@@]3(C)[C@]1(C)CC2`, the GI50 is 18.4 µM in the test on SF-539 CNS; 2.21 µM in the test on MOLT-4 leukemia; 11.5 µM in the test on OVCAR-3 ovarian; 3.38 µM with CCRF-CEM leukemia; 13.9 µM in the test on 786-0 renal; 15.1 µM in the test on NCI-H226 lung. For the same compound, the GI50 in the test with HOP-62 NSCLC was 15.4 µM; in the test with HL-60(TB) leukemia, 4.17 µM; in the test on ACHN renal, 11.7 µM; with HOP-92 NSCLC it was 14 µM. The TGI was found to be 44.3 µM with SF-539 CNS; 6.52 µM in the test on MOLT-4 leukemia; 24.4 µM in the test on OVCAR-3 ovarian; 14.9 µM with CCRF-CEM leukemia; 29.7 µM in the test on 786-0 renal; 41.3 µM in the test on NCI-H226 lung. The TGI in the test with HOP-62 NSCLC came to 35 µM; in the test on HL-60(TB) leukemia, 19.9 µM; in the test with ACHN renal, 28.7 µM; in the test on HOP-92 NSCLC it was 28.9 µM.
As for `CC(=O)CCCCO`, the TGI in the test on SF-539 CNS, in the test with MOLT-4 leukemia, in the test with OVCAR-3 ovarian, in the test with CCRF-CEM leukemia, in the test with 786-0 renal and with HOP-62 NSCLC was more than 100 µM throughout. The TGI with HL-60(TB) leukemia, in the test with ACHN renal and with HOP-92 NSCLC was more than 100 µM each time.
In the case of `O=C(Cc1cccc(OC(F)(F)F)c1)Nc1ccc(CCCCc2nnc(NC(=O)Cc3ccccn3)s2)nn1`, the GI50 was 15.7 µM in the test on SF-539 CNS; 5.49 µM with MOLT-4 leukemia; 17 µM in the test with OVCAR-3 ovarian; 32.1 µM with CCRF-CEM leukemia; 11.4 µM in the test on 786-0 renal; 15.1 µM in the test on NCI-H226 lung. For the same compound, the values for the GI50 with HL-60(TB) leukemia, in the test with ACHN renal and in the test on HOP-92 NSCLC were 8.34 µM, 20.9 µM and 6.19 µM, respectively. Further, the TGI was 50.3 µM in the test with SF-539 CNS; more than 100 µM in the test on MOLT-4 leukemia; more than 100 µM in the test on OVCAR-3 ovarian; more than 100 µM with CCRF-CEM leukemia; 27.5 µM with 786-0 renal; 54.1 µM in the test on NCI-H226 lung. Besides, the TGI with HL-60(TB) leukemia is more than 100 µM; in the test on ACHN renal it was more than 100 µM; with HOP-92 NSCLC, 25.9 µM.

The record behind these values is PubChem BioAssay (NCI).
